Experimental findings from ChEMBL document CHEMBL5647694, “Novel orally bioavailable EZH1/2 dual inhibitors with greater antitumor efficacy than an EZH2 selective inhibitor” (Cancer Sci, 2017) are described below.

The target of assay [1] is Tyrosine-protein kinase BTK (Homo sapiens) (UniProt Q06187). Briefly: Inhibition of N-terminal GST-fused full length human BTK (2 to 659 residues) expressed in baculovirus infected Sf21 cells using Srctide as substrate at 1 uM in presence of ATP by Mobility shift assay.
Assay [2] addresses Ephrin type-A receptor 5 (Homo sapiens) (UniProt P54756). Briefly: Inhibition of N-terminal GST-fused human EPHA5 catalytic domain (662 to 948 residues) expressed in baculovirus-infected Sf21 cells using Blk/Lyntide as substrate at 1 uM in presence of ATP by Mobility shift assay.
Assay [3] addresses Fibroblast growth factor receptor 4 (Homo sapiens) (UniProt P22455). Put plainly: Inhibition of N-terminal GST-fused human FGFR4 cytoplasmic domain (460 to 802 residues) expressed in baculovirus-infected Sf21 cells using CSKtide as substrate at 1 uM in presence of ATP by Mobility shift assay.
Assay [4] deals with Tyrosine-protein kinase Fgr (Homo sapiens) (UniProt P09769). Briefly: Inhibition of N-terminal GST-fused full length human FGR (1 to 529 residues) expressed in baculovirus-infected Sf21 cells using Srctide as substrate at 1 uM in presence of ATP by Mobility shift assay.
Assay [5] has as its target Macrophage colony-stimulating factor 1 receptor (Homo sapiens) (UniProt P07333). Put plainly: Inhibition of N-terminal GST-fused human FMS cytoplasmic domain (538 to 972 residues) expressed in baculovirus-infected Sf21 cells using Srctide as substrate at 1 uM in presence of ATP by Mobility shift assay.
Assay [6] concerns the target Tyrosine-protein kinase HCK (Homo sapiens) (UniProt P08631). Briefly: Inhibition of N-terminal GST-fused truncated human HCK (25 to 526 residues) expressed in baculovirus-infected Sf21 cells using Srctide as substrate at 1 uM in presence of ATP by Mobility shift assay.
The target of assay [7] is Non-receptor tyrosine-protein kinase TNK1 (Homo sapiens) (UniProt Q13470). Put plainly: Inhibition of N-terminal GST-tagged human TNK1 catalytic domain (106 to 390 residues) expressed in baculovirus-infected Sf21 cells using CSKtide as substrate at 1 uM in presence of ATP by Mobility shift assay.
For assay [8], the target named is BDNF/NT-3 growth factors receptor (Homo sapiens) (UniProt Q16620). Put plainly: Inhibition of N-terminal GST-tagged human TRKB cytoplasmic domain (456 to 822 residues) expressed in baculovirus-infected Sf21 cells using Srctide as substrate at 1 uM in presence of ATP by Mobility shift assay.
In assay [9] the target is Serine/threonine-protein kinase BRSK2 (Homo sapiens) (UniProt Q8IWQ3). Put plainly: Inhibition of N-terminal GST-tagged full length human BRSK2 (1 to 674 residues) expressed in baculovirus-infected Sf21 cells using CHKtide as substrate at 1 uM in presence of ATP by Mobility shift assay.
For assay [10], the target named is Eukaryotic elongation factor 2 kinase (Homo sapiens) (UniProt O00418). Briefly: Inhibition of N-terminal GST-fused full length human EEF2K (1 to 725 residues) expressed in Escherichia coli expression system using EEF2Ktide as substrate at 1 uM in presence of ATP by Mobility shift assay.
Assay [11] has as its target Serine/threonine-protein kinase LATS2 (Homo sapiens) (UniProt Q9NRM7). Put plainly: Inhibition of N-terminal GST-fused human LATS2 catalytic domain (553 to 1088 residues) expressed in baculovirus expression system using SGKtide as substrate at 1 uM in presence of ATP by Mobility shift assay.
Assay [12] deals with Serine/threonine-protein kinase 3 (Homo sapiens) (UniProt Q13188). Briefly: Inhibition of N-terminal GST-fused full length human MST2 (1 to 491 residues) expressed in baculovirus expression system using IRS1 as substrate at 1 uM in presence of ATP by Mobility shift assay.
Assay [13] addresses Serine/threonine-protein kinase 26 (Homo sapiens) (UniProt Q9P289). Briefly: Inhibition of N-terminal GST-fused full length human MST4 (1 to 416 residues) expressed in baculovirus expression system using Moesin-derived peptide as substrate at 1 uM in presence of ATP by Mobility shift assay.
Assay [14] has as its target Serine/threonine-protein kinase Nek6 (Homo sapiens) (UniProt Q9HC98). Put plainly: Inhibition of N-terminal GST-fused full length human NEK6 (1 to 313 residues) expressed in baculovirus expression system using CDK7 peptide as substrate at 1 uM in presence of ATP by Mobility shift assay.
For assay [15], the target named is Serine/threonine-protein kinase Nek7 (Homo sapiens) (UniProt Q8TDX7). Briefly: Inhibition of N-terminal GST-fused full length human NEK7 (1 to 302 residues) expressed in baculovirus expression system using CDK7 peptide as substrate at 1 uM in presence of ATP by Mobility shift assay.
In assay [16] the target is Lymphokine-activated killer T-cell-originated protein kinase (Homo sapiens) (UniProt Q96KB5). Briefly: Inhibition of N-terminal GST-fused full length human PBK (1 to 322 residues) expressed in baculovirus expression system using Histone H3 peptide as substrate at 1 uM in presence of ATP by Mobility shift assay.
For assay [17], the target named is Protein kinase C gamma type (Homo sapiens) (UniProt P05129). Briefly: Inhibition of N-terminal GST-fused human full length PKC-gamma(1 to 697 residues ) expressed in baculovirus expression system using PKC peptide as substrate at 1 uM in presence of ATP by Mobility shift assay.
The target in assay [18] is Protein kinase C zeta type (Homo sapiens) (UniProt Q05513). Put plainly: Inhibition of N-terminal GST-fused human full length PKC-zeta (1 to 592 residues ) expressed in baculovirus expression system using PKC peptide as substrate at 1 uM in presence of ATP by Mobility shift assay.
Assay [19] deals with Interferon-induced, double-stranded RNA-activated protein kinase (Homo sapiens) (UniProt P19525). Briefly: Inhibition of N-terminal GST-fused human PKR catalytic domain (252 to 551 residues) expressed in baculovirus expression system using SRPKtide as substrate at 1 uM in presence of ATP by IMAP.
The target of assay [20] is Ribosomal protein S6 kinase alpha-1 (Homo sapiens) (UniProt Q15418). Briefly: Inhibition of N-terminal GST-fused human full length RSK1 (1 to 735 residues) expressed in baculovirus expression system using S6K peptide(N-FL) as substrate at 1 uM in presence of ATP by Mobility shift assay.
For assay [21], the target named is Myosin light chain kinase 2, skeletal/cardiac muscle (Homo sapiens) (UniProt Q9H1R3). Briefly: Inhibition of N-terminal GST-fused full length human skMLCK (1 to 596 residues) expressed in baculovirus expression system using MLCtide as substrate at 1 uM in presence of ATP by Mobility shift assay.
Assay [22] deals with SRSF protein kinase 1 (Homo sapiens) (UniProt Q96SB4). Briefly: Inhibition of N-terminal GST-fused full length human SRPK1 (1 to 655 residues) expressed in Escherichia coli expression system using SRPKtide as substrate at 1 uM in presence of ATP by IMAP assay.
Assay [23] deals with Testis-specific serine/threonine-protein kinase 2 (Homo sapiens) (UniProt Q96PF2). Put plainly: Inhibition of N-terminal GST-fused full length human TSSK2 (1 to 358 residues) expressed in baculovirus expression system using GS peptide as substrate at 1 uM in presence of ATP by Mobility shift assay.

SMILES strings stand for the structures.

Serine/threonine-protein kinase 3 (Homo sapiens), sequence (Q13188 whole entry, the tested form may be a part): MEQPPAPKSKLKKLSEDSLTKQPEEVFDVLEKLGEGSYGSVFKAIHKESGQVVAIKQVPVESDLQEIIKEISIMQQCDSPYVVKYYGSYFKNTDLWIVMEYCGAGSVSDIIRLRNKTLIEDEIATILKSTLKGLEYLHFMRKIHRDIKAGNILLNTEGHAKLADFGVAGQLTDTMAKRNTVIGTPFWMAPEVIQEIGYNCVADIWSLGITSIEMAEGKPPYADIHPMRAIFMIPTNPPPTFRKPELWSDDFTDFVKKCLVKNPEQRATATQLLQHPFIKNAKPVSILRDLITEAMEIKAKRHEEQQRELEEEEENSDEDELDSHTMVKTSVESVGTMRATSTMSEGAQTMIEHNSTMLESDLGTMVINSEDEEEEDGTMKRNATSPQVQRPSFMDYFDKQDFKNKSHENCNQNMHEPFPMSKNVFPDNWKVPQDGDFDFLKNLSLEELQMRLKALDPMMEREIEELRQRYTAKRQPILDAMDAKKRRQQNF
Tyrosine-protein kinase BTK (Homo sapiens), sequence (Q06187 whole entry, the tested form may be a part): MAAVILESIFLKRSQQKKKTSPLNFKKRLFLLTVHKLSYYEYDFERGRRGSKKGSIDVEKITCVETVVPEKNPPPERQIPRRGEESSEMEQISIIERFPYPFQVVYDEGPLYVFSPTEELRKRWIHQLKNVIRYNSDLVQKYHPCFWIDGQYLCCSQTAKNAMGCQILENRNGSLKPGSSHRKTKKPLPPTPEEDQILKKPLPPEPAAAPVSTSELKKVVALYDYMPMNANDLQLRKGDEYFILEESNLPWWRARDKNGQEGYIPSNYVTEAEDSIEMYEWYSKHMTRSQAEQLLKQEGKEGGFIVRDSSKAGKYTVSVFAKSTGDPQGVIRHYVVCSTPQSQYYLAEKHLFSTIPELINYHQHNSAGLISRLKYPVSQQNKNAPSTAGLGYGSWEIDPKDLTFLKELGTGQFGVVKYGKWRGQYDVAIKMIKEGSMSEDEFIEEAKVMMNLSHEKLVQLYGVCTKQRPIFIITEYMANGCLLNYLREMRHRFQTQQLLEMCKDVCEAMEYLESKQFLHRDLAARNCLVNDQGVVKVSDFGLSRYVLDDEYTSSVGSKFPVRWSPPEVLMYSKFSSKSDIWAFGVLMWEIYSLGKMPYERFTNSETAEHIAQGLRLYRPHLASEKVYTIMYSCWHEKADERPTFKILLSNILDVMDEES
Ephrin type-A receptor 5 (Homo sapiens), sequence (P54756 whole entry, the tested form may be a part): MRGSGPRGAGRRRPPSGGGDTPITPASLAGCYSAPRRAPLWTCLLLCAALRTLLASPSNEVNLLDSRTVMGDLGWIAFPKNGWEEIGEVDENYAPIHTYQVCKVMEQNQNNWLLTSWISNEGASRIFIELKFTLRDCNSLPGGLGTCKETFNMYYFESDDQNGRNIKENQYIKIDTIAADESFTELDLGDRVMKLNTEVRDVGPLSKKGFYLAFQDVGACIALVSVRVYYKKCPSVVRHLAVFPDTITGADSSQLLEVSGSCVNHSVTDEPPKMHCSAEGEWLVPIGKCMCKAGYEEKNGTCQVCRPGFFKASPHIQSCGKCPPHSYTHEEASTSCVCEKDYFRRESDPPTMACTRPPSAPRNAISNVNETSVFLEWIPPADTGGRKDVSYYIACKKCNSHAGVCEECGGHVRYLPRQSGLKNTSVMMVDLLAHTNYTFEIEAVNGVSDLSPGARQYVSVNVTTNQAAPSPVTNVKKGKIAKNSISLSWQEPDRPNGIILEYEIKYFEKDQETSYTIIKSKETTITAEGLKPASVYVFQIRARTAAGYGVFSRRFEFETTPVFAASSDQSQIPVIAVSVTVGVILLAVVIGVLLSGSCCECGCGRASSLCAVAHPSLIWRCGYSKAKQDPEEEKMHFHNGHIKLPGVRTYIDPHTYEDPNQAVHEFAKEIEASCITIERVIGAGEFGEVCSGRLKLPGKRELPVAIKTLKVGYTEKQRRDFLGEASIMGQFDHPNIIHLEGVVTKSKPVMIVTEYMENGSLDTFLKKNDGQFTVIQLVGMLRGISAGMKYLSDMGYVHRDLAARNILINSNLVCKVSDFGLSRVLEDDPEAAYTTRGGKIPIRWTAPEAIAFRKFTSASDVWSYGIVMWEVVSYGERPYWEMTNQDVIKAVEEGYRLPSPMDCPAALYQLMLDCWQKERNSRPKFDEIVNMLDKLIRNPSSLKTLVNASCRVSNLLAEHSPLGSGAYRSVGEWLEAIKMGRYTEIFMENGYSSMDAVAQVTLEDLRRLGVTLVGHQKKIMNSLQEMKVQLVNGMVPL
Non-receptor tyrosine-protein kinase TNK1 (Homo sapiens), sequence (Q13470 whole entry, the tested form may be a part): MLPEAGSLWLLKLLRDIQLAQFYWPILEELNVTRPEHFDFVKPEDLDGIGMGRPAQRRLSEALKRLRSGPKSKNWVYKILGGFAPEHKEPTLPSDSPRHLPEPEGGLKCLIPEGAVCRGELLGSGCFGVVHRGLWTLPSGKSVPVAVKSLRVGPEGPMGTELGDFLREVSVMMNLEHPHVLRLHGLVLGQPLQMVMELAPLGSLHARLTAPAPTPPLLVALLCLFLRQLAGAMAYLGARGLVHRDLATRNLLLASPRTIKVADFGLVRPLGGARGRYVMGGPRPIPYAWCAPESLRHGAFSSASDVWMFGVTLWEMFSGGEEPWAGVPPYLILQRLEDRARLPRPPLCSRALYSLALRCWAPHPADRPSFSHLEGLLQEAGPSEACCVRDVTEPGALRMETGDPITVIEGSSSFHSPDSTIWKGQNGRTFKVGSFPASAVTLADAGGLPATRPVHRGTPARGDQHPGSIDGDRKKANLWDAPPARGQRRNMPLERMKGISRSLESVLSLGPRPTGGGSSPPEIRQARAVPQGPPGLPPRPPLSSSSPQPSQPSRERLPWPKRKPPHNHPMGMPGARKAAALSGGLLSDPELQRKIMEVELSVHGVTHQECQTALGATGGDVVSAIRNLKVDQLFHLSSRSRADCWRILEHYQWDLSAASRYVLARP
Serine/threonine-protein kinase 26 (Homo sapiens), sequence (Q9P289 2-416 limits assumed): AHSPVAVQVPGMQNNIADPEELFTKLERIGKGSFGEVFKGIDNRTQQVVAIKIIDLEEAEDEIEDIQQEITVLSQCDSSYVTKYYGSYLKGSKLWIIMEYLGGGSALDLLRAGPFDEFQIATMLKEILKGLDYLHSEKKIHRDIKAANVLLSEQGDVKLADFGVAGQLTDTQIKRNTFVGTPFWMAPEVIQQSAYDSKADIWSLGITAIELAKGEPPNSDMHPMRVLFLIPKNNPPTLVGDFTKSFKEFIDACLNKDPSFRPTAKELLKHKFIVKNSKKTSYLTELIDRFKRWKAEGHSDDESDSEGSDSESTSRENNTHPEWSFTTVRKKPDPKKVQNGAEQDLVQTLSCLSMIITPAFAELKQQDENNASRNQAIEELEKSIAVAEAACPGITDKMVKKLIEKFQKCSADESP
Myosin light chain kinase 2, skeletal/cardiac muscle (Homo sapiens), sequence (Q9H1R3 whole entry, the tested form may be a part): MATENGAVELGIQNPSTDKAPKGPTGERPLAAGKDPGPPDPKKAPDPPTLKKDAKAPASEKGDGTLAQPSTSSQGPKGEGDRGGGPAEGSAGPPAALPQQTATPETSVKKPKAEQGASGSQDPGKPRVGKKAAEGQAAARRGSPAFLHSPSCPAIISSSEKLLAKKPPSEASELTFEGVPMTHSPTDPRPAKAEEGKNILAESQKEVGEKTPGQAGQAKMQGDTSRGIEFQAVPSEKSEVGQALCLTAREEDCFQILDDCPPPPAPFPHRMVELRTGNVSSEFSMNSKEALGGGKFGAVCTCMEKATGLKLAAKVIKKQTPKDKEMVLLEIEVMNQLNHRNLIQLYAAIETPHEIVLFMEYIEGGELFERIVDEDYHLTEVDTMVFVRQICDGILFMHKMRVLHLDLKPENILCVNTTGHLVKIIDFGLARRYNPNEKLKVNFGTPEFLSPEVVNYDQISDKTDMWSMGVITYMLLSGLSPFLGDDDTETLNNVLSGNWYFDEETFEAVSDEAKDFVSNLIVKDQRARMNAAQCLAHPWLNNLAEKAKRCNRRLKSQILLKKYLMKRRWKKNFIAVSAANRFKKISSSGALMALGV
Serine/threonine-protein kinase Nek6 (Homo sapiens), sequence (Q9HC98 whole entry, the tested form may be a part): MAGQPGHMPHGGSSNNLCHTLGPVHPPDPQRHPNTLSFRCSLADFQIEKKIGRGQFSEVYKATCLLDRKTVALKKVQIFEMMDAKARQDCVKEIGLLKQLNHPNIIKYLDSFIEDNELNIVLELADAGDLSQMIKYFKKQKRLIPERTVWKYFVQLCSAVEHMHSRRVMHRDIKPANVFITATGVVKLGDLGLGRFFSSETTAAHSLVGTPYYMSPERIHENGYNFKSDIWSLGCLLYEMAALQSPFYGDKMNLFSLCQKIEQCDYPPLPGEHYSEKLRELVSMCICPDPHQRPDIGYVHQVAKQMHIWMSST

For `Cc1cc(C)c(CNC(=O)c2cc(Br)c3c(c2C)O[C@@](C)([C@H]2CC[C@H](N(C)C)CC2)O3)c(=O)[nH]1`, the inhibition in assay [1] was -10%; in assay [2], -6.3%; in assay [3] it was -3.7%; in assay [4], -4.6%; in assay [5], -0.4%; in [6], -2.5%. The inhibition was -3.4% in assay [7]; -2.8% in assay [8]; 6.6% in assay [9]; -3% in assay [10]; -0.6% in assay [11]; -2.1% in assay [12]. Further, the inhibition in [13] was -0.1%; in assay [14], -0.1%; in assay [15] it was 2.8%; in assay [16], -2.5%; in [17], 0%; in assay [18], 3.2%. In addition, the inhibition in assay [19] was -3%; in assay [20], -6.4%; in assay [21], 2.4%; in [22], -4.7%; in assay [23] it was -2.5%.
Turning to `Cc1cc(C)c(CNC(=O)c2cc(Cl)c3c(c2C)O[C@@](C)([C@H]2CC[C@H](N(C)C)CC2)O3)c(=O)[nH]1` [VALEMETOSTAT], the inhibition in assay [1] was -9%; in assay [2], -3.4%; in [3], -5.6%; in assay [4] it was -6.5%; in assay [5], 1.3%; in [6], -4.2%. For the same compound, the inhibition was -6.8% in [7]; 0.6% in assay [8]; 11.2% in [9]; -0.3% in assay [10]; 0.6% in assay [11]; -1.4% in assay [12]. Further, the inhibition in [13] is 0.8%; in assay [14] it was 0.7%; in assay [15], 1.6%; in assay [16], -3.4%; in assay [17], 1%; in assay [18], 9.3%. The inhibition was 2.9% in assay [19]; -0.2% in assay [20]; -1.6% in assay [21]; -6.9% in assay [22]; -3.3% in [23].
